Laboratory results: patent US20230146455A1, “TREATMENT OF INFLAMMATORY DISEASES WITH PEPTIDES AND PHARMACEUTICAL COMPOSITIONS” (Yuyu Pharma, Inc., priority 2020, published 2023)
Where “and” joins values, the source holds several entries; their conditions need not be identical. Identical values can stand only once. Where a SMILES comes first, the peptide text is derived from it. [ ]: non-standard residue; d: D form. Hyp = O=C(O)[C@@H]1C[C@@H](O)CN1

Legend:
IL-10 = assay: Example 9 Luminex, LPS hPBMCs: IL-10; format: cell-based, human; details: IL-10
Experimental: (§1) Treatment Human PBMCs were pretreated with YY-101, YDE-011 and YDE-043 or reference compound; Xiidra® at various concentration (ranging from 1 nM to 100 uM) for 2 h before stimulation. An equal volume of 0.5% DMSO was used as a vehicle control. Then, the cells were treated with LPS at 5 ug/ml. The supernatants from treated cells were harvested at 24 h and placed in a 96 well for Luminex cytokine & chemokine profiling using a Luminex 200 multiplex assay (Luminex; R&D system, USA).
(§2) The main study arm with triplicate wells per group in a 24-well plate: • 1. Blank • 2. PBMC: 0.5% DMSO • 3. PBMC+LPS (5 ug/ml) • 4. PBMC+YY-101 100 uM • 5. PBMC+YY-101 10 uM • 6. PBMC+YY-101 1 uM • 7. PBMC+YY-101 0.1 uM • 8. PBMC+YY-101 0.01 uM • 9. PBMC+LPS (5 ug/ml)+Xiidra®100 uM • 10. PBMC+LPS (5 ug/ml)+Xiidra® 10 uM • 11. PBMC+LPS (5 ug/ml)+Xiidra® 1 uM • 12. PBMC+LPS (5 ug/ml)+Xiidra®0.1 uM • 13. PBMC+LPS (5 ug/ml)+Xiidra®0.01 uM • 14. PBMC+LPS (5 ug/ml)+Xiidra®0.001 uM • 15. PBMC+LPS (5 ug/ml)+YY-101 100 uM • 16. PBMC+LPS (5 ug/ml)+YY-101 10 uM • 17. PBMC+LPS (5 ug/ml)+YY-101 1 uM • 18. PBMC+LPS (5 ug/ml)+YY-101 0.1 uM • 19. PBMC+LPS (5 ug/ml)+YY-101 0.01 uM • 20. PBMC+LPS (5 ug/ml)+YY-101 0.001 uM • 21. PBMC+LPS (5 ug/ml)+YDE-011 100 uM • 22. PBMC+LPS (5 ug/ml)+YDE-011 10 uM • 23. PBMC+LPS (5 ug/ml)+YDE-011 1 uM • 24. PBMC+LPS (5 ug/ml)+YDE-011 0.1 uM • 25. PBMC+LPS (5 ug/ml)+YDE-011 0.01 uM • 26. PBMC+LPS (5 ug/ml)+YDE-011 0.001 uM • 27. PBMC+LPS (5 ug/ml)+YDE-043 100 uM • 28. PBMC+LPS (5 ug/ml)+YDE-043 10 uM • 29. PBMC+LPS (5 ug/ml)+YDE-043 1 uM • 30. PBMC+LPS (5 ug/ml)+YDE-043 0.1 uM • 31. PBMC+LPS (5 ug/ml)+YDE-043 0.01 uM • 32. PBMC+LPS (5 ug/ml)+YDE-043 0.001 uM
(§3) Multiplex assay was used to measure 30 cytokines and chemokines. The 1:2, 1:10 and 1:200 diluted cell supernatant and serial dilution of the standard were dispensed into a 96 well plate at 50 ul/well. Then, the pre-mixed cocktail of antibody-coated magnetic beads was dispensed at 50 ul/well and incubated at room temperature for 2 h in a horizontal orbital microplate shaker at 800±500 rpm. The beads were washed using a magnetic device to prevent loss. The biotin-antibody was dispensed in 50 ul of each well and incubated at room temperature for 1 h in a shaker at 800±500 rpm. After washing, streptavidin-PE was added at 50 ul/well and incubated at room temperature for 30 min in a shaker under the same conditions. Finally, after washing, wash buffer (100 ul/well) was added to the plate and incubated in a shaker for 2 min. The Luminex™ 200 setting were set according to the manufacturer's protocol. The data was calculated with a standard five-parameter logistic nonlinear regression analysis of the data (xPonent software 4.2, USA). The levels of cytokine/chemokine are normalized to the live cell counts (1×10^5 cells/mL) and presented as concentrations per mL (pg/mL or ng/mL).

GM-CSF = assay: Example 9 Luminex, LPS hPBMCs: GM-CSF; format: cell-based, human
Experimental: as §1, §2, §3

[1] = PBMC + LPS(5 ug/ml) + test article 0.001 uM, Mean
[2] = PBMC + LPS(5 ug/ml) + test article 0.001 uM, single replicates
[3] = PBMC + LPS(5 ug/ml) + test article 0.01 uM, Mean
[4] = PBMC + LPS(5 ug/ml) + test article 0.01 uM, single replicates
[5] = PBMC + LPS(5 ug/ml) + test article 0.1 uM, Mean
[6] = PBMC + LPS(5 ug/ml) + test article 0.1 uM, single replicates
[7] = PBMC + LPS(5 ug/ml) + test article 1 uM, Mean
[8] = PBMC + LPS(5 ug/ml) + test article 1 uM, single replicates
[9] = PBMC + LPS(5 ug/ml) + test article 10 uM, Mean
[10] = PBMC + LPS(5 ug/ml) + test article 10 uM, single replicates
[11] = PBMC + LPS(5 ug/ml) + test article 100 uM, Mean
[12] = PBMC + LPS(5 ug/ml) + test article 100 uM, single replicates

CC(C)C[C@H](NC(=O)CNC(=O)[C@H](CC(C)C)NC(=O)[C@H](CCC(N)=O)NC(=O)CNC(=O)[C@@H]1C[C@@H](O)CN1)C(=O)N[C@@H](C)C(=O)NCC(=O)N1CCC[C@H]1C(=O)N[C@@H](CCCCN)C(=O)O [YDE-011] (H-[Hyp]GQLGLAGPK-OH) was tested, and the “Concentration” value (IL-10; [1]) was 303.8 pg/mL, the “conc/live cell (pg/10^5)” value (IL-10; [1]) was 57.2 pg/10^5 and the “Concentration” value (IL-10; [2]) was 291.0 pg/mL and 314.2 pg/mL and 306.3 pg/mL. The “conc/live cell (pg/10^5)” value (IL-10; [2]) was 64.7 pg/10^5 and 54.2 pg/10^5 and 52.8 pg/10^5, the “Concentration” value (IL-10; [3]) was 318.0 pg/mL and the “conc/live cell (pg/10^5)” value (IL-10; [3]) was 54.4 pg/10^5. For the same compound, the “Concentration” value (IL-10; [4]) was 333.6 pg/mL and 325.0 pg/mL and 295.4 pg/mL, the “conc/live cell (pg/10^5)” value (IL-10; [4]) was 52.9 pg/10^5 and 52.4 pg/10^5 and 57.9 pg/10^5 and the “Concentration” value (IL-10; [5]) was 308.9 pg/mL. For the same compound, the “conc/live cell (pg/10^5)” value (IL-10; [5]) was 54.4 pg/10^5, the “Concentration” value (IL-10; [6]) was 299.0 pg/mL and 317.8 pg/mL and 309.9 pg/mL and the “conc/live cell (pg/10^5)” value (IL-10; [6]) was 45.3 pg/10^5 and 63.6 pg/10^5 and 54.4 pg/10^5. The “Concentration” value (IL-10; [7]) was 314.7 pg/mL, the “conc/live cell (pg/10^5)” value (IL-10; [7]) was 62.8 pg/10^5 and the “Concentration” value (IL-10; [8]) was 314.2 pg/mL and 319.3 pg/mL and 310.6 pg/mL. For the same compound, the “conc/live cell (pg/10^5)” value (IL-10; [8]) was 57.1 pg/10^5 and 66.5 pg/10^5 and 64.7 pg/10^5, the “Concentration” value (IL-10; [9]) was 300.7 pg/mL and the “conc/live cell (pg/10^5)” value (IL-10; [9]) was 57.3 pg/10^5. The “Concentration” value (IL-10; [10]) was 299.0 pg/mL and 295.4 pg/mL and 307.7 pg/mL, the “conc/live cell (pg/10^5)” value (IL-10; [10]) was 55.4 pg/10^5 and 50.9 pg/10^5 and 65.5 pg/10^5 and the “Concentration” value (IL-10; [11]) was 111.4 pg/mL. For the same compound, the “conc/live cell (pg/10^5)” value (IL-10; [11]) was 18.4 pg/10^5, the “Concentration” value (IL-10; [12]) was 99.4 pg/mL and 113.9 pg/mL and 121.1 pg/mL and the “conc/live cell (pg/10^5)” value (IL-10; [12]) was 16.3 pg/10^5 and 18.7 pg/10^5 and 20.2 pg/10^5. The “GM-CSF Concentration” value (GM-CSF; [1]) was 97.0 pg/mL, the GM-CSF conc/live cell (GM-CSF; [1]) was 18.3 pg/10^5 and the “GM-CSF Concentration” value (GM-CSF; [2]) was 92.5 pg/mL and 96.3 pg/mL and 102.1 pg/mL. For the same compound, the GM-CSF conc/live cell (GM-CSF; [2]) was 20.6 pg/10^5 and 16.6 pg/10^5 and 17.6 pg/10^5, the “GM-CSF Concentration” value (GM-CSF; [3]) was 103.2 pg/mL and the GM-CSF conc/live cell (GM-CSF; [3]) was 17.9 pg/10^5. The “GM-CSF Concentration” value (GM-CSF; [4]) was 90.4 pg/mL and 108.0 pg/mL and 111.3 pg/mL, the GM-CSF conc/live cell (GM-CSF; [4]) was 14.3 pg/10^5 and 17.4 pg/10^5 and 21.8 pg/10^5 and the “GM-CSF Concentration” value (GM-CSF; [5]) was 95.6 pg/mL. For the same compound, the GM-CSF conc/live cell (GM-CSF; [5]) was 16.7 pg/10^5, the “GM-CSF Concentration” value (GM-CSF; [6]) was 100.5 pg/mL and 90.8 pg/mL and 95.4 pg/mL and the GM-CSF conc/live cell (GM-CSF; [6]) was 15.2 pg/10^5 and 18.2 pg/10^5 and 16.7 pg/10^5. For the same compound, the “GM-CSF Concentration” value (GM-CSF; [7]) was 93.9 pg/mL, the GM-CSF conc/live cell (GM-CSF; [7]) was 18.7 pg/10^5 and the “GM-CSF Concentration” value (GM-CSF; [8]) was 96.3 pg/mL and 92.5 pg/mL and 92.9 pg/mL. For the same compound, the GM-CSF conc/live cell (GM-CSF; [8]) was 17.5 pg/10^5 and 19.3 pg/10^5 and 19.4 pg/10^5, the “GM-CSF Concentration” value (GM-CSF; [9]) was 98.2 pg/mL and the GM-CSF conc/live cell (GM-CSF; [9]) was 18.7 pg/10^5. The “GM-CSF Concentration” value (GM-CSF; [10]) was 103.0 pg/mL and 92.9 pg/mL and 98.8 pg/mL, the GM-CSF conc/live cell (GM-CSF; [10]) was 19.1 pg/10^5 and 16.0 pg/10^5 and 21.0 pg/10^5 and the “GM-CSF Concentration” value (GM-CSF; [11]) was 135.7 pg/mL. For the same compound, the GM-CSF conc/live cell (GM-CSF; [11]) was 22.4 pg/10^5, the “GM-CSF Concentration” value (GM-CSF; [12]) was 149.0 pg/mL and 127.8 pg/mL and 130.3 pg/mL and the GM-CSF conc/live cell (GM-CSF; [12]) was 24.4 pg/10^5 and 21.0 pg/10^5 and 21.7 pg/10^5.
